For one assay, the system named is hFPR1. Description: Ca2+ imaging, HEK293T transiently transfected with hFPR1. In kind it is cell-based, human. As to conditions: 10 μM tBoc2 co-applied with 5 μM Aβ17-40 (Fig. S6B).
A further assay relates to hFPR3. As to the kind of experiment: Ca2+ imaging, HEK293T transiently transfected with hFPR3. As to conditions: 10 μM tBoc2 co-applied with 5 μM Aβ17-40; n = 1, N = 2.
Another assay has as its system FPR1. As to conditions: cited from earlier work. The text has this:
In summary, our study provides a systematic overview over the capability of different mouse and human FPRs to interact with Aβ in different buffer systems. To our knowledge, we are the first to report an activation of hFPR3 by Aβ and the first to identify N-abridged Aβ fragments as activators of FPRs.

The subject of another assay is hFPR2. Description: Ca2+ imaging, HEK293T transiently transfected with hFPR2. It is filed as cell-based, human. The note with it: 10 μM tBoc2 co-applied with 5 μM Aβ17-40 (Fig. S6B).
Another assay deals with U87 cells. Description: Ca2+ imaging, U87 cells. As to conditions: 10 μM tBoc2 vs 5 μM Aβ11-40 or Aβ17-40; n = 3, N = 1.
A further assay deals with APP/PS1 mice. The note with it: cited from earlier work. The text has this:
The activation of PRRs by Aβ has become a recent focus in AD research because they have a special ability to potently trigger the reactive state ([14], [25]). Among these PRRs, FPRs are one of the promising targets for AD research ([12]). They belong to a small gene family of G protein–coupled receptors with three members in humans and seven in mice ([26]). FPRs are primarily expressed in the innate and adaptive immune system, where they contribute to the detection and elimination of bacterial pathogens ([27], [28], [29], [30]). However, they are also expressed in a number of cell types in the ... || In summary, our study provides a systematic overview over the capability of different mouse and human FPRs to interact with Aβ in different buffer systems. To our knowledge, we are the first to report an activation of hFPR3 by Aβ and the first to identify N-abridged Aβ fragments as activators of FPRs.

Experimental for U87 cells: Peptides in HBSS or Tris–NaCl were dissolved in an ultrasonic bath as described above. […] The Aβ17-40 peptide used throughout the main text was purchased from Anaspec/MoBiTec and validated with Aβ17-40 peptides from Sigma-Aldrich and Synpeptide. Aβ11-40 was obtained from Peptides&Elephants. […] Tert-Boc-FLFL (tBoc2) was purchased from Bachem and dissolved in DMSO at 30 mM. f-MLFYFS (Psy-SP6) and f-MAMKKL (Sal-SP4) were obtained from VCPBIO and dissolved at 10 mM in DMSO (Psy-SP6) or at 1 mM in C1 (SP4), respectively. WKWMVm-NH2 and WKWMVm-CHO were purchased from Proteogenix and VCPBIO, respectively, and dissolved as 1 mM stock solutions in C1. fMLF was purchased from Sigma-Aldrich and also dissolved at 1 mM in C1. All peptides were thawed at room temperature approximately 1 h before each functional experiment, as this time was needed to prepare the compound plates for each measurement.
U87 MG cells (CLS) were cultured in Minimum Essential medium (Biowest) supplemented with 10% (v/v) heat-inactivated FCS (Pan Biotech), 1 unit/ml penicillin-streptomycin (Biowest), 2 mM L-glutamine (Biowest), and 1 unit/ml non-essential amino acids (Biowest) until 50 to 60% confluence. For calcium imaging and immunostaining, on average 2500 cells were seeded in each well of PDL-coated (10 μg/ml in PBS, Sigma) black optical 96-well μCLEAR-plates (Greiner Bio-One).
(§1) Cell population responses of transfected HEK293T cells and U87 cells were recorded using a Flexstation III microplate reader (Molecular Devices). Briefly, cells were incubated with 2 μM Calbryte 520 AM (AAC Bioquest) for 2 h at room temperature in C1 assay buffer with 5 mM glucose (Carl Roth). Before each experiment, cells were rinsed three times with C1. Experiments with HEK293T cells were conducted 48 h after transfection, while experiments with U87 cells were performed 24 h after seeding. Acquisition of baseline fluorescence was performed for 25 s before ligand application, and cell population response was measured for 125 s after application.
Experimental for hFPR2: (§2) All peptides were thawed at room temperature approximately 1 h before each functional experiment, as this time was needed to prepare the compound plates for each measurement.
(§3) HEK293T cells (ATCC) were cultured in Dulbecco’s Modified Eagle’s medium (DMEM, Biowest) supplemented with 10% (v/v) heat-inactivated fetal calf serum (FCS, Pan Biotech), 1 unit/ml penicillin-streptomycin (Biowest), and 2 mM L-glutamine (Biowest) until 80% confluence. For transfection, approximately 2000 cells were seeded in each well of poly-D-lysine–coated (PDL) (10 μg/ml in PBS, Sigma) black optical 96-well μCLEAR-plates (Greiner Bio-One). Cells were transfected after 24 h using jetPEI (Polyplus-transfection SA) with 0.125 μg of DNA plasmids encoding the respective receptors and equal amounts of a plasmid encoding the G protein subunit Gα16 since this subunit is needed to trigger FPR-dependent calcium signals in HEK293 cells ([50], [70]). The medium of transfected cells was changed 24 h after transfection. For mock transfections, the proportion of the FPR-containing plasmids were substituted by an empty pcDNA3.1 vector.
as §1
Experimental for hFPR3: as §2, §3, §1

On to “Tert-Boc-FLFL [tBoc2, reference compound]”, for which, in the assay on hFPR1, the “antagonism at FPR1” value was “competitive antagonist of FPR1 and FPR2”. Also, in the assay with hFPR3, the “antagonism at FPR3” value was “does not inhibit FPR3”. For the same substance, the binding preference result in the assay with FPR1 was “preferentially binds to FPR1”. Further, in the assay with hFPR2, the “antagonism at FPR2” value is “competitive antagonist of FPR1 and FPR2”. In the assay on U87 cells, the “inhibition of U87 Ca2+ response to Aβ11-40 / Aβ17-40” value is listed as “completely abolished the responses”. Also, the “effect on microglia reactivity, neuronal pathology and cognition” value in the assay on APP/PS1 mice is “reduced microglia reactivity, decreased neuronal pathology, and improved cognitive performance”.

The values are drawn from PMC9694488, “Amyloid beta and its naturally occurring N-terminal variants are potent activators of human and mouse formyl peptide receptor 1” (The Journal of Biological Chemistry, 2022).
